The target in experiment [1] is T1, human FSH receptor (Homo sapiens, UniProt P23945).
T1 construct: expressed in transfected cells; host or cells: CHO cells (hFSHR clone 16)
T1 sequence (P23945 18-695): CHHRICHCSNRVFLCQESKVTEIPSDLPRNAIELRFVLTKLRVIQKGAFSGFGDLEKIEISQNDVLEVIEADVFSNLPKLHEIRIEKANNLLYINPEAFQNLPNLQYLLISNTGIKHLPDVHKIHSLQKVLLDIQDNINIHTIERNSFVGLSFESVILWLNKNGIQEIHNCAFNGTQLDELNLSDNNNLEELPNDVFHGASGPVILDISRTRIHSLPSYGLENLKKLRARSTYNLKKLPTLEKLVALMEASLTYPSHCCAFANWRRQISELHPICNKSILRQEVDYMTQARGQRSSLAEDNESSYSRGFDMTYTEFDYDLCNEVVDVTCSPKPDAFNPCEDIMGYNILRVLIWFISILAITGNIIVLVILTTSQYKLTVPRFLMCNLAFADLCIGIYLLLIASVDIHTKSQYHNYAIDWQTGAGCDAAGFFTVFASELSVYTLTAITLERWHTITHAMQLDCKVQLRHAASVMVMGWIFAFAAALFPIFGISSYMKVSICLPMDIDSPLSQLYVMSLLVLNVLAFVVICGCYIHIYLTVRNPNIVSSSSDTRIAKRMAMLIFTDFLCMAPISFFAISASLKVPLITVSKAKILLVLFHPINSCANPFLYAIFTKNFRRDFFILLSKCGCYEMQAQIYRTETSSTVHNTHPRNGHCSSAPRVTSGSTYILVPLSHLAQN
The experiment can be described thus: HTRF assay for measuring cAMP in cells, test for antagonism (in the presence of hFSH). Format: cell-based. As to conditions: hFSHR clone 16 cells (CHO cells stably transfected with the human FSH receptor); in the presence of 1e-9 mol/l hFSH; 37° C. for 2 h; read-out: IC50 (FSH antagonistic effect in the HTRF assay). As to the method: (§1) HTRF Assay for Measuring cAMP in Cells
(§2) The method is based on a competitive immunoassay between native cAMP, which has been produced by the cells, and cAMP which is labelled with XL665. The tracer binding was visualized by a monoclonal antibody, anti-cAMP labelled with cryptate [HTRF=homogeneous time-resolved fluorescence].
(§3) The specific signal is inversely proportional to the cAMP concentration of the samples employed.
(§4) The 665 nm/620 nm fluorescence ratio was evaluated.
(§5) The following material was used: 96-well plates for the tissue culture, 96-well plates with black edge and black base (e.g. Fluotrac 600 from Greiner), 96-well plates for the substance dilutions of polypropylene and cAMP Femtomolar (4000 wells Kit, CIS Bio International # 62AM1PEC).
(§6) The following reagents were used: BSA (bovine serum albumin) Fraction V protease-free, IBMX (3-isobutyl-1-methylxanthine), hFSH (human follicle stimulating hormone), Triton X-100 analytical grade, potassium fluoride analytical grade, G 418 (Geneticin) and Accutase.
(§7) Buffer 1 (washing and testing buffer) contained PBS, 1 mM CaCl2, 1 mM MgCl2, 0.2% glucose; 0.1% BSA, 1 mM IBMX. Buffer 2 (2× lysis buffer) contained 1% Triton X-100 in PBS (without CaCl2 and MgCl2). Buffer 3 (assay buffer) contained 50 mM potassium phosphate buffer (pH 7.0); 800 mM potassium fluoride; 0.2% BSA (always added fresh).
(§8) On day 1, the cells were seeded in 96-well plates (3×10^4 cells per well hFSHR clone 16 cells (CHO cells stably transfected with the human FSH receptor in 150 μl of medium). The next day, test substance dilutions were made up. For this purpose, all the substances were diluted in ice-cold buffer 1 (with or without hFSH), and the substance dilutions were placed on ice until applied to the cells.
(§9) The cell supernatant was then aspirated off, and the cells were washed 2× with 200 μl of buffer 1. The cells were treated with 60 μl of the appropriate substance concentrations at 37° C. for 2 h. The cells were then lysed with 60 μl of buffer 2 (put onto the supernatant) (on a plate shaker at RT for 30 min).
(§10) The test conjugates (XL-665 and anti-cAMP cryptate) were diluted in buffer 3 in accordance with the manufacturers' information. The actual mixture for measurement was pipetted into a black 96-well plate (in each case 15 μl of the cell lysate diluted with 35 μl of buffer 1; firstly 25 μl of XL-665 conjugate were pipetted and, after 10 min, 25 μl of the anti-cAMP cryptate were added). This is followed by incubation at RT for 90 minutes. The measurement was carried out in a PheraStar (BMG).
(§11) Dose-effect curve (hFSH) for the human receptor: 1e-8, 3e-9, 1 e-9, 3e-10, 1e-10, 3e-11, 1e-11, 3e-12 mol/l.
(§12) The test substances were employed in suitable dilutions in the absence (test for agonism) and in the presence of 1e-9 mol/l hFSH.
(§13) The values of the well ratio were averaged and then entered directly in SigmaPlot versus the concentrations. The maximum and minimum values were determined for each plate, and half the difference is to be regarded as IC50.

Experiment [2] has as its target T1, human FSH receptor. As to the kind of experiment: HTRF assay for measuring cAMP in cells, test for agonism (in the absence of hFSH). Format: cell-based. As to conditions: hFSHR clone 16 cells (CHO cells stably transfected with the human FSH receptor), 37° C. for 2 h, read-out: EC50 (FSH agonistic effect in the HTRF assay). As to the method: as §1, §2, §3, §4, §5, §6, §7, §8, §9, §10, §11, §12, §13
On the technique in general: In TR-FRET formats the signal depends on donor and acceptor labels being close together.

As usually defined, the IC50 is the concentration needed to halve the response being measured. Usually EC50 stands for the concentration that produces a half-maximal response. On to `COc1ccc2nc(-c3cc(OC)c(OC)c(OC)c3)cc(C(=O)N[C@H](CCO)Cc3ccccc3)c2c1` [Example 17, 6-Methoxy-2-(3,4,5-trime-thoxy-phenyl)-quinoline-4-carboxylic acid ((S)-1-benzyl-3-hydroxy-propyl)-amide], for which the IC50 on human FSH receptor [1] is above 10 µM. For the same molecule, the EC50 at human FSH receptor [2] is 8 µM.

In the case of `COc1ccc2nc(-c3cc(OC)c(OC)c(OC)c3)cc(C(=O)N[C@@H](CCO)Cc3ccc4ccccc4c3)c2c1` [Example 8, 6-Methoxy-2-(3,4,5-trimethoxy-phenyl)-quinoline-4-carboxylic acid ((R)-3-hydroxy-1-naphthalen-2-ylmethyl-propyl)-amide], the half-inhibitory concentration (IC50) at human FSH receptor [1] is above 10 µM. For the same molecule, at human FSH receptor [2], the EC50 amounted to 7 µM.

Regarding `COc1ccccc1C#Cc1ccc(OC(C)C)c(C(=O)N[C@@H](CCO)Cc2c[nH]c3ccccc23)c1` [Example 5, N-[(R)-3-Hydroxy-1-(1H-indol-3-ylmethyl)-propyl]-2-isopropoxy-5-(2-methoxy-phenylethynyl)-benzamide], the IC50 at human FSH receptor [1] was determined as 0.15 µM. Besides, the EC50 on human FSH receptor [2] is above 10 µM.

As to `CCOc1ccc(-c2cccc(OC)c2)cc1C(=O)N[C@@H](CCO)Cc1c[nH]c2ccccc12` [Example 2, 4-Ethoxy-3′-methoxy-biphenyl-3-carboxylic acid [(R)-3-hydroxy-1-(1H-indol-3-ylmethyl)-propyl]-amide], the IC50 on human FSH receptor [1] turned out to be 0.3 µM. Moreover, the EC50 on human FSH receptor [2] was above 10 µM.

As to `CNC(=O)c1ccc(-c2ccc(OC(C)C)c(C(=O)N[C@@H](CCO)Cc3c[nH]c4ccccc34)c2)cc1Cl` [Example 3, 3′-Chloro-4-isopropoxy-biphenyl-3,4′-dicarboxylicacid 3-{[(R)-3-hydroxy-1-(1H-indol-3-ylmethyl)-propyl]-amide} 4′-methylamide], at human FSH receptor [1], the 50% inhibitory concentration (IC50) was determined as 0.025 µM. Moreover, the concentration giving a half-maximal response (EC50) at human FSH receptor [2] is above 10 µM.

On to `COc1ccc2nc(-c3cc(OC)c(OC)c(OC)c3)cc(C(=O)N[C@@H](CCO)Cc3ccsc3)c2c1` [Example 12, 6-Methoxy-2-(3,4,5-trime-thoxy-phenyl)-quinoline-4-carboxylic acid ((R)-3-hydroxy-1-thiophen-3-yl-methyl-propyl)-amide], for which, on human FSH receptor [1], the IC50 is above 10 µM. Besides, the EC50 at human FSH receptor [2] came out at 5 µM.

Turning to `COc1ccc2nc(-c3cc(OC)c(OC)c(OC)c3)cc(C(=O)N[C@@H](CCO)Cc3csc4ccccc34)c2c1` [Example 9, 6-Methoxy-2-(3,4,5-trime-thoxy-phenyl)-quinoline-4-carboxylic acid ((R)-1-benzo-[b]thiophen-3-ylmethyl-3-hydroxy-propyl)-amide], the IC50 on human FSH receptor [1] was above 10 µM.

For the molecule `COc1ccc2nc(-c3cc(OC)c(OC)c(OC)c3)cc(C(=O)N[C@H](CCO)Cc3c[nH]c4ccccc34)c2c1` [Example 14, 6-Methoxy-2-(3,4,5-trimethoxy-phenyl)-quinoline-4-carboxylic acid [(S)-3-hydroxy-1-(1H-indol-3-yl-methyl)-propyl]-amide], the IC50 on human FSH receptor [1] was above 10 µM. Moreover, at human FSH receptor [2], the EC50 came to 6 µM.
